The values below come from patent US11142520B2, “LDHA activity inhibitors” (ARCTIC PHARMA AS, priority 2017, dated 2021).

Molecules are shown by their SMILES. Some results are limits rather than exact numbers.

One assay has as its system LDH. Conditions: in vitro; cited from earlier work.
The test system of assay [1] is MIA PaCa-2 human pancreatic cells. The settings on record: MIA PaCa-2 cells; cited from earlier work.
The target in assay [2] is T1, LDHA (Homo sapiens (Human), UniProt P00338). Description: Coupled diaphorase assay, LDHA. In kind it is biochemical. Conditions: lactate to pyruvate direction, 4-7 nM LDHA. The source says:
(§1) The inhibitory properties of the compounds were investigated using a coupled enzyme assay that links the lactate dehydrogenase (LDH) reaction to the production of fluorescent resorutin by diaphorase.
(§2) Human lactate dehydrogenases (LDH) catalyze the reversible interconversion between pyruvate and lactate. LDH is capable of catalyzing both the forward (pyruvate to lactate) and the reverse (lactate to pyruvate) reaction, using either NADH or NAD^+ as a cofactor. The reaction proceeds in either direction dependent on various factors, such as substrate availability, the presence of necessary cofactors, temperature and pH. Different isoforms (LDH A, B, and C) of the enzyme favor different reaction directions—LDHA prefers the conversion from pyruvate to lactate, whereas LDHB preferentially oxidizes lactate to pyruvate.
The coupled assay relies on the oxidation of NAD^+ to NADH throughout the conversion of lactate to pyruvate by LDH (isoforms A, B and C). The produced NADH serves as cofactor in the diaphorase reaction, which reduces non-fluorescent resazurin to fluorescent resorufin. Therefore, the assay indirectly monitors the rate of pyruvate production. Although the consumption of NADH can be directly monitored due to the intrinsic fluorescence of the molecule (excitation: 340 nm, emission: 460 nm) there are problems linked to the direct readout method. […] Shifting the assay to longer wavelengths by coupling the LDH reaction to the conversion of resazurin to fluorescent resorufin by diaphorase reduces this compound interference. The assay direction was thus chosen to provide a robust and reliable assay. […]
Compounds were tested in duplicates using 2-fold, 3-fold or 4-fold serial dilutions including 11 individual concentrations, starting from 5000 μM to 30 μM. […] The controls allowed for the calculation of the percentage inhibition for each data point. […] Enzyme solution leading to final concentrations of 4-7 nM LDHA or 6 nM LDHB, as well as 0.2 U/ml diaphorase in the reaction well was dispensed into 384-well plates (Greiner bio-one) using a CyBi®-SELMA robotic pipettor. Compound dilutions and the enzyme were incubated for at least 20 min at room temperature. […] The reaction was quenched by the addition of a stop solution (final concentrations: 20 mM EDTA, 400 mM NaCl, 40 mM pyruvate). Fluorescence was read out after 5 min of incubation at an excitation wavelength of 560 nm and an emission wavelength of 590 nm on a Perkin Elmer Victor X plate reader. […]
(§3) Fluorescence data was normalized to DMSO and inhibition controls resulting in percentage inhibition for every compound concentration. Dose response curves were fitted in KaleidaGraph (www.synergy.com) or Dotmatics software package (www.dotmatics.com) using a standard 4-parameter fit (Levenberg-Marquardt fitting procedure), resulting in IC50 values for the test compounds.

In assay [3] the target is T1, LDHA. In words: Isothermal titration calorimetry (ITC). In kind it is binding. Conditions: 25° C., NADH 1 mM. On the procedure:
ITC experiments were performed using a MicorCal PEAQ ITC instrument. Prior to the experiments, LDHA was dialyzed against 50 mM potassium phosphate buffer pH 7.4, 150 mM NaCl, 0.002% pluronic acid F-127 at 4° C. overnight using mini dialysis kits from GE Healthcare. The tested compounds were dissolved to 100 mM in DMSO. After dialysis, the protein was centrifuged at 14,000 rpm at 4° C. for 30 min. Buffer and MilliQ water for the reference cell were degassed prior to use. Protein concentration was determined by A280 nm measurements using a Nanodrop. All ITC experiments were conducted at 25° C. with stirring at 750 rpm. In a typical experiment the compound of interest was loaded into the sample cell at 20 μM and LDHA (200 μM in syringe) was titrated to the compound solution in consecutive injections. NADH (1 mM) and DMSO concentrations (2%) were matched in all solutions. Data were analyzed using the MicroCal PEAQ-ITC analysis software and fitted to a single site binding model, resulting in binding constant Kd, enthalpy ΔH, entropy ΔS and the stoichiometry N.
(In general: ITC needs no label: the signal is the heat of the interaction.)

The target in the next assay is LDHB (Homo sapiens (Human), UniProt P07195). In words: Coupled diaphorase assay, LDHB. The settings on record: lactate to pyruvate direction, 6 nM LDHB. It is filed as biochemical.
LDHB, sequence (P07195 whole entry): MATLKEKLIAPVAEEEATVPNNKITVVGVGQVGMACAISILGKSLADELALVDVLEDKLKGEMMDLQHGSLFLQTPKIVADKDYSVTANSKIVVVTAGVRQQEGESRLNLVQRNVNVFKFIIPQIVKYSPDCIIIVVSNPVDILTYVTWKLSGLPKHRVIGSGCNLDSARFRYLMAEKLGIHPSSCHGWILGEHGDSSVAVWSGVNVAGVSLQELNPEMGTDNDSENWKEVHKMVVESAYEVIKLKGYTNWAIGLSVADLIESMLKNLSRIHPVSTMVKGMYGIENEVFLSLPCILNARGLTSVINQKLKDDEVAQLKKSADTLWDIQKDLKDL
Excerpt: as §1, §2
The coupled assay relies on the oxidation of NAD^+ to NADH throughout the conversion of lactate to pyruvate by LDH (isoforms A, B and C). The produced NADH serves as cofactor in the diaphorase reaction, which reduces non-fluorescent resazurin to fluorescent resorufin. Therefore, the assay indirectly monitors the rate of pyruvate production. Although the consumption of NADH can be directly monitored due to the intrinsic fluorescence of the molecule (excitation: 340 nm, emission: 460 nm) there are problems linked to the direct readout method. […] Shifting the assay to longer wavelengths by coupling the LDH reaction to the conversion of resazurin to fluorescent resorufin by diaphorase reduces this compound interference. The assay direction was thus chosen to provide a robust and reliable assay.
Applying the LDHA reaction in the preferred direction for the conversion of pyruvate to lactate under oxidation of NADH to NAD^+ would necessitate running the LDHA reaction to about 80% completion and adding the diaphorase assay reagents afterwards in order to avoid enzyme competition for NADH.
The controls allowed for the calculation of the percentage inhibition for each data point. […] Enzyme solution leading to final concentrations of 4-7 nM LDHA or 6 nM LDHB, as well as 0.2 U/ml diaphorase in the reaction well was dispensed into 384-well plates (Greiner bio-one) using a CyBi®-SELMA robotic pipettor. Compound dilutions and the enzyme were incubated for at least 20 min at room temperature. […] The reaction was quenched by the addition of a stop solution (final concentrations: 20 mM EDTA, 400 mM NaCl, 40 mM pyruvate). Fluorescence was read out after 5 min of incubation at an excitation wavelength of 560 nm and an emission wavelength of 590 nm on a Perkin Elmer Victor X plate reader. […]
as §3

On to `NC(=O)C(=O)O` [Oxamate], for which the “concentration range that inhibits LDH enzyme activity” value in the assay on LDH is recorded as “mM range”.
Consider `O=C1CC(c2ccc(N3CCOCC3)cc2)(c2ccsc2)NC(=O)C1Sc1ccccc1Cl` (stereo not shown) [Example 24, 3-((2-chlorophenyl)thio)-6-(4-morpholinophenyl)-6-(thiophen-3-yl)piperidine-2,4-dione], for which the “time of continuous LDHA inhibition until cell death occurred” value in assay [1] was not below 2 days.
As for `O=C1CC(c2ccc(N3CCOCC3)cc2)(c2ccsc2)NC(=O)C1Sc1cc(Cl)ccc1Cl` (racemic) [Example 10, 3-((2,5-dichlorophenyl)thio)-6-(4-morpholinophenyl)-6-(thiophen-3-yl)piperidine-2,4-dione], the concentration for half-maximal inhibition (IC50) at LDHA [2] lay within 0.1 to 0.5 µM. Further, on LDHA [3], the “-TΔS” value came to 0.944 kcal/mol, the Kd is 0.0432 µM, the “N (stoichiometry)” value is on record as 0.796 and the ΔH was -11 kcal/mol.
As to `CCOc1cccc(C2(c3ccsc3)CC(=O)C(Sc3ccc(F)cc3Cl)C(=O)N2)n1` (stereo not shown) [Example 4, 3-((2-chloro-4-fluorophenyl)thio)-6-(6-ethoxypyridin-2-yl)-6-(thiophen-3-yl)piperidine-2,4-dione], the results for the half-maximal inhibitory concentration (IC50) at LDHB and on LDHA [2] were more than 100 µM and 10 to 50 µM, respectively.
Turning to `O=C1CC(c2ccsc2)(c2cccc(OCC3CCCC3)n2)NC(=O)C1Sc1cc(Cl)ccc1Cl` (stereo not shown) [Example 5, 6-[6-(cyclopentylmethoxy)pyridin-2-yl]-3-[(2,5-dichlorophenyl)sulfanyl]-6-(thiophen-3-yl)piperidine-2,4-dione], at LDHA [2], the concentration for half-maximal inhibition (IC50) lay in the range of 0.1 to 0.5 µM. In addition, at LDHA [3], the “-TΔS” value was determined as 4.06 kcal/mol, the dissociation constant Kd was 0.671 µM, the “N (stoichiometry)” value is reported as 0.548 and the ΔH is -4.35 kcal/mol.
With `COC(=O)OC1=C(Sc2cccc(Cl)c2Cl)C(=O)NC(c2ccsc2)(c2cccc(OCC3CCCC3)n2)C1` (stereo not shown) [Example 12, 6′-(cyclopentylmethoxy)-5-((2,3-dichlorophenyl)thio)-6-oxo-2-(thiophen-3-yl)-1,2,3,6-tetrahydro-[2,2′-bipyridin]-4-yl methyl carbonate], the 50% inhibitory concentration (IC50) on LDHB and on LDHA [2] was more than 100 µM throughout.
On to `O=C1CC(c2ccc(N3CCOCC3)cc2)(c2ccsc2)NC(=O)C1Sc1ccc(Cl)cc1Cl` (stereo not shown) [Example 29, 3-((2,4-dichlorophenyl)thio)-6-(4-morpholinophenyl)-6-(thiophen-3-yl)piperidine-2,4-dione], for which the IC50 is more than 100 µM at LDHB and 50 to 100 µM on LDHA [2].
Turning to `O=C1CC(c2ccsc2)(c2cccc(OCC3CCCC3)n2)NC(=O)C1Sc1ccc(F)cc1Cl` (stereo not shown) [Example 3, 3-[(2-chloro-4-fluorophenyl)sulfanyl]-6-[6-(cyclopentylmethoxy)pyridin-2-yl]-6-(thiophen-3-yl)piperidine-2,4-dione], the IC50 on LDHB is more than 100 µM. Further, the IC50 at LDHA [2] is 0.5 to 10 µM. Also, on LDHA [3], the “-TΔS” value was determined as 5.11 kcal/mol, the dissociation constant Kd came to 0.373 µM, the “N (stoichiometry)” value was 0.721 and the ΔH was -3.68 kcal/mol.
For `O=C1CC(c2ccsc2)(c2cccc(Br)n2)NC(=O)C1Sc1ccc(F)cc1Cl` (stereo not shown) [Example 2, 6-(6-bromopyridin-2-yl)-3-[(2-chloro-4-fluorophenyl)sulfanyl]-6-(thiophen-3-yl)piperidine-2,4-dione], the half-maximal inhibitory concentration (IC50) is more than 100 µM at LDHB and 10 to 50 µM at LDHA [2].
Consider `CC(=O)OC1=C(Sc2ccc(F)cc2Cl)C(=O)NC(c2ccsc2)(c2cccc(OCC3CCCC3)n2)C1` (stereo not shown) [Example 13, 5-((2-chloro-4-fluorophenyl)thio)-6′-(cyclopentylmethoxy)-6-oxo-2-(thiophen-3-yl)-1,2,3,6-tetrahydro-[2,2′-bipyridin]-4-yl acetate], for which the concentration for half-maximal inhibition (IC50) at LDHB and on LDHA [2] was more than 100 µM throughout.
On to `O=C1CC(c2ccsc2)(c2cccc(OCC3CCCC3)n2)NC(=O)C1Sc1cccc(Cl)c1Cl` (stereo not shown) [Example 7, 6-[6-(cyclopentylmethoxy)pyridin-2-yl]-3-[(2,3-dichlorophenyl)sulfanyl]-6-(thiophen-3-yl)piperidine-2,4-dione], for which the IC50 at LDHB is more than 100 µM; at LDHA [2], 10 to 50 µM.
For `COCCOC(=O)OC1=C(Sc2ccc(Cl)cc2Cl)C(=O)NC(c2ccc(N3CCOCC3)cc2)(c2ccsc2)C1` (stereo not shown) [Example 30, 5-((2,4-dichlorophenyl)thio)-2-(4-morpholinophenyl)-6-oxo-2-(thiophen-3-yl)-1,2,3,6-tetrahydropyridin-4-yl (2-methoxyethyl) carbonate], in that order: more than 100 µM and more than 100 µM.
In the same order, the values of `O=C1CC(c2ccc(N3CCOCC3)cc2)(c2ccsc2)NC(=O)C1Sc1cccc(Cl)c1Cl` (stereo not shown) [Example 9, 3-((2,3-dichlorophenyl)thio)-6-(4-morpholinophenyl)-6-(thiophen-3-yl)piperidine-2,4-dione] are more than 100 µM and 0.5 to 10 µM.
For `CC(C)COC(=O)OC1=C(Sc2ccc(F)cc2Cl)C(=O)NC(c2ccc(N3CCOCC3)cc2)(c2ccsc2)C1` (stereo not shown) [Example 32, 5-((2-chloro-4-fluorophenyl)thio)-2-(4-morpholinophenyl)-6-oxo-2-(thiophen-3-yl)-1,2,3,6-tetrahydropyridin-4-yl iso-butyl carbonate], in that order: more than 100 µM and more than 100 µM.
As to `COCCOC(=O)OC1=C(Sc2ccc(Cl)cc2Cl)C(=O)NC(c2ccsc2)(c2cccc(OCC3CCCC3)n2)C1` (stereo not shown) [Example 22, 6′-(cyclopentylmethoxy)-5-((2,4-dichlorophenyl)thio)-6-oxo-2-(thiophen-3-yl)-1,2,3,6-tetrahydro-[2,2′-bipyridin]-4-yl (2-methoxyethyl) carbonate], the IC50 on LDHB and on LDHA [2] was more than 100 µM throughout.
As for `O=C1CC(c2ccc(N3CCOCC3)cc2)(c2ccsc2)NC(=O)C1Sc1ccc(F)cc1Cl` (stereo not shown) [Example 8, 3-((2-chloro-4-fluorophenyl)thio)-6-(4-morpholinophenyl)-6-(thiophen-3-yl)piperidine-2,4-dione], the 50% inhibitory concentration (IC50) at LDHB and at LDHA [2] was 0.1 to 0.5 µM each time.

Broadly, the IC50 is the concentration that inhibits the measured activity by half. By Kd is commonly meant the concentration at which binding is half-saturated. A higher Kd goes with lower affinity.
